This is an account of results in US9756861B2, “Micro-colloidal silicic acid / boric acid composition and a method of preparing a bioenhancing solution and powder” (Barlaa B.V., priority 2009, dated 2017).

This experiment relates to seeds of wheat. On the procedure: Different levels of silicic acid were tested on seeds and in pot experiments to assess their effects on improvement of seed and the growth and yield in wheat.

On to silicic acid, for which the “plant growth and yield” value (0.25% and 0.50% silicic acid application, all the varieties of wheat) is “highest”. Besides, the rate of germination result (silicic acid applied at 0.25-0.50% level, wheat seeds) was “increased”.
